The values below come from publication PMC9356065, “Novel psoralen derivatives as anti-breast cancer agents and their light-activated cytotoxicity against HER2 positive breast cancer cells” (Scientific Reports, 2022).

The subject of data set [1] is T47-D. The data set can be described thus: MTT cytotoxicity, 48 h, without UVA. It is filed as cell-based, human. To be noted: for IC50: hormone-dependent breast cancer, read-out: Cytotoxic activity T47-D IC50; for Selectivity Index (SI): SI = IC50 for MRC-5/IC50 for T47-D. The method, then: (§1) Additionally, the cytotoxicity towards normal cells, human embryonal lung fibroblast cell MRC-5 was also assessed.
(§2) MDA-MB-231 (triple-negative breast cancer) was obtained from M.D. Anderson Cancer Center, Houston, TX, USA). T47-D (hormone-dependent breast carcinoma), SK-BR-3 (human HER2+ breast cancer), and MRC-5 (normal embryonic lung fibroblast) were obtained from the American Type Culture Collection (ATCC, Manassas, VA, USA).
(§3) The cytotoxic effect of tested compounds was evaluated in two breast cancer cell lines, MDA-MB-231 and T47-D. Number of survival cells after exposure to tested compounds for 48 h was determined by MTT assay, as previously described.

Data set [2] has as its system differentiated HL-60 cells. The data set can be described thus: Inhibition of TPA-induced superoxide anion radical generation (HL-60 Antioxidant). It is filed as cell-based, human. To be noted: Homo sapiens, HL-60; screening concentration 100 µM; read-out: HL-60 Antiox. %Inh. An excerpt:
Inhibition of 12-O-tetradecanoylphorbol-13-acetate (TPA)-induced superoxide anion radical generation in differentiated HL-60 cells (HL-60 Antioxidant) TPA-induced superoxide anion radical formation was detected in differentiated HL-60 cells by photometric determination of cytochrome c reduction as previously described by Gerhäuser et al., 2003.ii Superoxide dismutase (SOD;15U) was a positive control. […]

The nature of data set [3]: MTT cytotoxicity towards normal cells, 48 h. It is filed as cell-based. Particulars: MRC-5 cells (normal embryonic lung fibroblasts), human embryonal lung fibroblast cell, without UVA, read-out: Cytotoxic activity MRC-5 IC50. The method, then: as §1, §2, §3
For data set [4], the system named is MDA-MB-231. The experiment in a line: MTT cytotoxicity, 48 h, without UVA. It is filed as cell-based. Particulars: Homo sapiens, MDA-MB-231, light or radiation study; for IC50: hormone-independent breast cancer, read-out: Cytotoxic activity MDA-MB-231 IC50. The method, then: as §2, §3
Data set [5] can be described thus: Scavenging of diphenyl-picryl-hydrazyl radicals (DPPH). To be noted: screening concentration 250 µM. The text has this: 1. Chemoprevention activity
Background: DPPH is a stable violet radical that fades when it is reduced.

Data set [6] can be described thus: Inhibition of superoxide radical formation by xanthine/xanthine oxidase (XXO). It is filed as biochemical. To be noted: screening concentration 500 µM.
Excerpt: 1. […]

For data set [7], the target named is T1, aromatase (CYP19) (Homo sapiens, UniProt P11511).
T1 sequence (P11511 1-503): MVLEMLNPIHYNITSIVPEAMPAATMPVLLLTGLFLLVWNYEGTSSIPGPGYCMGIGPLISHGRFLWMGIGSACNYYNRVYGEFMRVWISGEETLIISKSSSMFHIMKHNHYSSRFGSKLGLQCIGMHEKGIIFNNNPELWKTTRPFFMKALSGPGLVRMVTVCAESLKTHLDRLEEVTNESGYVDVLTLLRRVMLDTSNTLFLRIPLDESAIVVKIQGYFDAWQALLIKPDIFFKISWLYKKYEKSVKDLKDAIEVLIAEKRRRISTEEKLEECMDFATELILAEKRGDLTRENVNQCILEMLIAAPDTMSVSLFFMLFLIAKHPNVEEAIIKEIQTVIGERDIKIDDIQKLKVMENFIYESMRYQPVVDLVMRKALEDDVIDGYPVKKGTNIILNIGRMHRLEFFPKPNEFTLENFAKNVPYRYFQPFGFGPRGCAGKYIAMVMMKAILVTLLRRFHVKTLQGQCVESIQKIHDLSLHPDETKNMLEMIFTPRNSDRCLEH
The data set can be described thus: Inhibition of aromatase (AIA). Particulars: at 12.5 µM; I = %inhibition lower than 50%; read-out: Aromatase inhibitory activity %Inhibition. Format: biochemical. The method, then: Estrogens are the critical risk factor for breast cancer initiation and progression and the aromatase enzyme involves in the final step conversion of androgens to estrogens[21],[22]. […] In this study, the synthesized psoralen derivatives were also tested for aromatase inhibitory activity (AIA) which is considered to be one of chemopreventive mechanisms for hormone dependent breast cancer.
Inhibition of the aromatase was performed using the method designed by Stresser et al.[39].

Data set [8] relates to MDA-MB-231. Details: method as in doi:10.1007/s00044-014-1312-6. Particulars: previously reported; cited from earlier work.
In data set [9] the test system is MCF-7. Particulars: Fig. 1d; cited from earlier work.
The subject of data set [10] is circulating estrogen levels. Details: method as in PMID 10098905. Particulars: female rats, dose-dependent; cited from earlier work.
For data set [11], the system named is SK-BR-3. The data set can be described thus: Dark and light-activated (UVA) cytotoxicity, MTT. It is filed as cell-based, human. To be noted: for IC50: Homo sapiens, SK-BR-3, light or radiation study, irradiation with UVA (2.0 J cm^−2), HER2+ breast cancer. The method, then: (§4) The selected compounds were screened for their IC50 values against both HER2+ breast cancer (SK-BR-3), and HER2− breast cancer (MDA-MB-231) in both dark and light-activated conditions (Table 2). Additionally, a negative control study was also performed with SK-BR-3 and MDA-MB-231 cells in the absence of tested compound under UVA irradiation (See Fig S7., Supporting Information).
(§5) SK-BR-3 and MDA-MB-231 cells were seeded into 96-well cell culture plates at 5 × 10^3 cells/well and incubated for 24 h at 37 °C under 5% CO2. After that, the cells were treated with 50 μM of psoralen derivatives in DMEM with 10% FBS and the cells were continued incubation for another 4 h. After incubation, the cells were washed with PBS (3 times) and then irradiated by a 365 nm lamp with the light intensity of 2.0 J cm^−2 for 12.5 min before re-incubation for another 72 h. After incubation, the cell was treated with methylthiazolyldiphenyl-tetrazolium bromide (MTT reagent 200 μL, 0.5 mg mL^−1, Sigma-Aldrich) for 2 h. After reagent removal, DMSO was added to dissolve the formazan product and the cell viabilities were determined through UV–Vis absorption of the resulting formazan at wavelength 560 nm using a microplate reader (BMG Labtech/SPECTROstar Nano). The cell morphology images were captured by using a light microscope (Microscope Nikon, inverted digital) at 20X magnification prior to treating with MTT reagent.

The test system of data set [12] is MDA-MB-231. The experiment in a line: Dark and light-activated (UVA) cytotoxicity, MTT. Format: cell-based. Particulars: Homo sapiens, MDA-MB-231, light or radiation study; irradiation with UVA (2.0 J cm^−2); HER2− breast cancer. The method, then: as §4, §5
The test system of data set [13] is MDA-MB-231. The data set can be described thus: Dark and light-activated (UVA) cytotoxicity, MTT. To be noted: Homo sapiens, dark, HER2− breast cancer. Format: cell-based.
The test system of data set [14] is SK-BR-3. The data set can be described thus: Dark and light-activated (UVA) cytotoxicity, MTT. Format: cell-based. Particulars: Homo sapiens, dark, HER2+ breast cancer.
Data set [15] has as its system 3T3. Details: method as in PMID 32815004, PMID 20693013. Particulars: cited from earlier work.
Data set [16] relates to SK-BR-3 cells. The experiment in a line: Cell morphology by light microscope. Format: cell-based, human. To be noted: 48 h. The method, then:
as §5, with “After incubation, the cells were washed with PBS (3 times) and then irradiated by a 365 nm lamp with the light intensity of 2.0 J cm^−2 for 12.5 min before re-incubation for another 72 h.” left out

For data set [17], the system named is ERα activity in MCF-7 cells. Details: method as in PMID 31673107. To be noted: read-out: IC50 antagonism of ERα activity in MCF-7 cells; cited from earlier work.
The subject of data set [18] is estrogen receptor in MCF-7 breast cancer cells. Details: method as in PMID 23053665. Particulars: MCF-7 breast cancer cells and tamoxifen-resistant clone; cited from earlier work.
[19] abbreviates: Homo sapiens, T47D, light or radiation study, 48 h, without UVA.

Counter-ions that a name gives are not always drawn. Like-named read-outs stand apart in the source and are kept apart here. Where only a bound is given, the exact number is not on record here.

For `COc1c2occc2c(NC(=O)c2cccc([N+](=O)[O-])c2)c2ccc(=O)oc12` [3f, N-(9-Methoxy-7-oxo-7H-furo[3,2-g]chromen-4-yl)-3-nitrobenzamide], the melting point fell in the range of 267 to 268 °C. For the same molecule, the IC50 in [1] (setting [19]) came out at 49.8 ± 0.5 µM. Further, the “Selectivity Index (SI)” value in data set [1] is on record as 1.6. Besides, in data set [2], the inhibition at 100 µM is 7%. For the same molecule, the IC50 at 48 h in data set [3] came out at 77.3 ± 3.52 µM. For the same molecule, the IC50 in data set [4] was 71 ± 2.34 µM. For the same molecule, the “DPPH %Inh” value in [5] is reported as 1%. Besides, in [6], the “XXO %Inh” value is 33%. The inhibition at 12.5 µM in [7] came to 4%.

`COc1c2occc2c(NC(=O)C23CC4CC(CC(C4)C2)C3)c2ccc(=O)oc12` [3n, (3r,5r,7r)-N-(9-Methoxy-7-oxo-7H-furo[3,2-g]chromen-4-yl)adamantane-1-carboxamide] gave a melting point of 240 to 242 °C. For the same molecule, in data set [1] (setting [19]), the IC50 is 43.06 ± 0.09 µM. The “Selectivity Index (SI)” value in data set [1] was greater than 3.0. Also, the inhibition at 100 µM in [2] is 8%. Moreover, the IC50 in data set [4] was greater than 100 µM. In addition, the “DPPH %Inh” value in data set [5] is 1%. The “XXO %Inh” value in data set [6] is listed as 47%. Also, the IC50 in data set [8] is 2 µM. Besides, the half-maximal inhibitory concentration (IC50) in data set [9] is 0.48 µM. Besides, in data set [7], the inhibition at 12.5 µM is 5%.

Regarding `COc1c2occc2cc2ccc(=O)oc12` [8-MOP, 8-methoxypsoralen, reference compound], in data set [10], the circulating estrogen levels entry is reported as “significantly reduced”. For the same molecule, the inhibition at 50 µg/mL in [1] (Homo sapiens, T47D, light or radiation study, 48 h, without UVA, I = %inhibition lower than 50%, read-out: Cytotoxic activity T47-D %Inhibition) was determined as 16%; in data set [4] (I = %inhibition lower than 50%, read-out: Cytotoxic activity MDA-MB-231 %Inhibition), 6%. For the same molecule, the “dark and light-activated cytotoxicity against SK-BR-3 (%viability screening)” value in data set [11] (50 µM, absence and presence of UVA (2.0 J cm^−2), Fig. 3) was “little to no activity”. Moreover, the IC50 in [11] was 24.7 ± 3.02 µM; in data set [12], greater than 100 µM; in data set [13], greater than 100 µM; in [14], greater than 100 µM.

Consider `COc1cccc2c1C(=O)c1c(O)c3c(c(O)c1C2=O)C[C@@](O)(C(=O)CO)C[C@@H]3O[C@H]1C[C@H](N)[C@H](O)[C@H](C)O1` [Doxorubicin, reference compound], for which the IC50 in data set [1] (setting [19]) came to 1.46 ± 2.79 µM; in data set [4], 3.16 ± 0.26 µM. In addition, the “Selectivity Index (SI)” value in data set [1] is given as 2.1. For the same molecule, the IC50 at 48 h in data set [3] came to 3.07 ± 0.22 µM.

On to `CS(=O)(=O)CCNCc1ccc(-c2ccc3ncnc(Nc4ccc(OCc5cccc(F)c5)c(Cl)c4)c3c2)o1` [Lapatinib, reference compound], for which the IC50 in [1] (setting [19]) worked out at 9.78 ± 0.46 µM; in data set [4], 53.37 ± 0.31 µM; in [11], 0.16 ± 0.03 µM; in data set [12], 8.6 ± 0.82 µM; in data set [13], 73 ± 2.53 µM; in data set [14] it was 25.3 ± 0.99 µM. In data set [1], the “Selectivity Index (SI)” value is reported as 5.0. For the same molecule, the IC50 at 48 h in [3] was determined as 48.8 ± 9.45 µM. In [15], the “phototoxic potential (3T3 NRU assay)” value was “phototoxic potential”. Moreover, the “morphology of SK-BR-3 cells under light activation” value in data set [16] (UVA 2.0 J cm^−2) is given as “morphological changes indicating apoptosis”. The “morphology of SK-BR-3 cells under dark condition” value in [16] (dark) is recorded as “morphological changes indicating apoptosis”.

Take `CC/C(=C(\c1ccccc1)c1ccc(OCCN(C)C)cc1)c1ccccc1` [Tamoxifen citrate, reference compound]: the IC50 in [1] (setting [19]) stood at 20.9 ± 1.31 µM; in [4], 66 ± 2.48 µM. The IC50 at 48 h in data set [3] stood at 67.6 ± 10.5 µM.

Regarding `COc1c2occc2c(NC(=O)c2cccc3ccccc23)c2ccc(=O)oc12` [VIb], the IC50 in [8] was 100 µM. The “IC50 (MCF-7)” value in data set [9] is “Inactive”.

As to `C=CCNc1c2ccoc2c(OC)c2oc(=O)ccc12` [Va], the 50% inhibitory concentration (IC50) was 5 µM in data set [8] and 3.87 µM in data set [9].

As for `COc1c2occc2c(NCc2ccccc2)c2ccc(=O)oc12` [Vb], the IC50 in data set [8] was 3 µM; in [9], 1.09 µM.

As to `COc1c2ccoc2cc2oc(=O)ccc12` [bergapten], the circulating estrogen levels entry in data set [10] is “significantly reduced”. For the same molecule, in data set [17], the IC50 was 1.2 µM. Also, the “levels of estrogen receptor” value in data set [18] is given as “reduced”.

In the case of `CC(C)=CCOc1c2ccoc2cc2oc(=O)ccc12` [isoimperatorin], the IC50 in data set [17] was 54.3 µM.

With `O=c1ccc2cc3ccoc3cc2o1` [psoralen], the IC50 in data set [17] is 24.1 µM.

With `O=c1ccc2cc3ccoc3c(O)c2o1` [xanthotoxol], the IC50 in data set [17] is 0.7 µM.

Broadly, the IC50 is the concentration needed to halve the response being measured. A word on the melting point: it is the temperature, or range, at which the solid turns liquid.
